Data: PMC6934184, “Selective DNA-PKcs inhibition extends the therapeutic index of localized radiotherapy and chemotherapy” (The Journal of Clinical Investigation, 2019)

Target: T1, CHEK2 (CHK2) (Homo sapiens, UniProt O96017)
T1 construct: purchased Thermo Fisher Scientific (Life Technologies) SelectScreen
Assay: SelectScreen Z'LYTE
Type: biochemical
Outline: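 NU5455 was profiled across the SelectScreen Broad panel of kinase activity and binding assays. Z'LYTE reactions such as CSF1R ran at apparent Km ATP, while the Adapta CAMK1 assay used ATP listed as 10. Values are given as percent.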

T1 sequence (O96017 whole entry): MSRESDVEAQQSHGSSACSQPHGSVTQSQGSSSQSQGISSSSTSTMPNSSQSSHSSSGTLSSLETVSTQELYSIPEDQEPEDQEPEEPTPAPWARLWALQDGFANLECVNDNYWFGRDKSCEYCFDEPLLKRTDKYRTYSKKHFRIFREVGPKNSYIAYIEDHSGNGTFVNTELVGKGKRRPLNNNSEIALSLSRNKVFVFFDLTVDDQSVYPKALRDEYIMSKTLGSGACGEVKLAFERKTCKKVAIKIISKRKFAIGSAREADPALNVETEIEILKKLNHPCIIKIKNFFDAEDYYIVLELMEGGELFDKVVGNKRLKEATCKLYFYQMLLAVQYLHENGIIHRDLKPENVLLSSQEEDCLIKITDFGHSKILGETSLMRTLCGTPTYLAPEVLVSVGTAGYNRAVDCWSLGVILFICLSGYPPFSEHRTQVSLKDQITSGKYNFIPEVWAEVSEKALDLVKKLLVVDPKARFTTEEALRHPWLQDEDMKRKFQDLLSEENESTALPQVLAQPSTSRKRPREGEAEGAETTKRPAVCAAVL

Compound: CN(C(=O)CN1CCOCC1)c1ccc2sc3c(-c4cccc5c(=O)cc(N6CC7CCC(C6)O7)oc45)cccc3c2c1 [NU5455]
- inhibition at 1 µM: -11.7%
